Source: PubChem BioAssay AID258 (DTP/NCI, 2004)
“And” between values parts separate entries of the source, which are not always exact repeats. Equal entries are not always repeated. Toxic doses and inconclusive results are not listed.

Tested on: CD2F1 mice, L1210 leukemia sc, survival T/C
Assay: NCI In Vivo Anticancer Drug Screen. Data for tumor model L1210 Leukemia (subcutaneous) in CD2F1 (CDF1) mice
Conditions: endpoint: median survival time, higher = longer survival
How it was run: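 Compound given to mice bearing transplantable tumor. Survival or tumor size then recorded. Result expressed relative to vehicle-dosed control group as T/C.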

[1] = dose: 14.0 mg/kg/injection, schedule: Q01DX Z (sc), vehicle: water
[2] = dose: 23.0 mg/kg/injection, schedule: Q01DX Z (sc), vehicle: water
[3] = dose: 39.0 mg/kg/injection, schedule: Q01DX Z (sc), vehicle: water
[4] = dose: 65.0 mg/kg/injection, schedule: Q01DX Z (sc), vehicle: water
[5] = dose: 6.25 mg/kg/injection, schedule: Q01DX009 (ip), vehicle: saline
[6] = dose: 12.5 mg/kg/injection, schedule: Q01DX009 (ip), vehicle: saline
[7] = dose: 25.0 mg/kg/injection, schedule: Q01DX009 (ip), vehicle: saline
[8] = dose: 50.0 mg/kg/injection, schedule: Q01DX009 (ip), vehicle: saline
[9] = dose: 100.0 mg/kg/injection, schedule: Q01DX009 (ip), vehicle: saline

SMILES: C1CN1c1nc(N2CC2)nc(N2CC2)n1
- T/C (dose: 0.1 mg/kg/injection, schedule: Q01DX009 (ip), vehicle: saline): 110 % of control
- T/C (dose: 0.1 mg/kg/injection, schedule: Q01DX009 (sc), vehicle: saline): 108 % of control
- T/C (dose: 0.2 mg/kg/injection, schedule: Q01DX009 (ip), vehicle: saline): 117 % of control
- T/C (dose: 0.2 mg/kg/injection, schedule: Q01DX009 (sc), vehicle: saline): 118 % of control
- T/C (dose: 0.27 mg/kg/injection, schedule: Q01DX009 (ip), vehicle: saline): 114 % of control
- T/C (dose: 0.27 mg/kg/injection, schedule: Q01DX009 (sc), vehicle: saline): 110 % of control
- T/C (dose: 0.4 mg/kg/injection, schedule: Q01DX009 (ip), vehicle: saline): 151 % of control
- T/C (dose: 0.45 mg/kg/injection, schedule: Q01DX009 (ip), vehicle: saline): 157 % of control
- T/C (dose: 0.45 mg/kg/injection, schedule: Q01DX009 (sc), vehicle: saline): 168 % of control
- T/C (dose: 0.6 mg/kg/injection, schedule: Q01DX009 (ip), vehicle: saline): 184 % of control
- T/C (dose: 0.6 mg/kg/injection, schedule: Q01DX009 (sc), vehicle: saline): 180 % of control
- T/C (dose: 0.8 mg/kg/injection, schedule: Q01DX009 (ip), vehicle: saline): 119 % of control
- T/C (dose: 0.9 mg/kg/injection, schedule: Q01DX009 (ip), vehicle: saline): 101 % of control
- T/C (dose: 0.9 mg/kg/injection, schedule: Q01DX009 (sc), vehicle: saline): 113 % of control

SMILES: Nc1cc(=O)[nH][nH]1
- T/C (dose: 108.0 mg/kg/injection, schedule: Q01DX Z (sc), vehicle: saline): 105 % of control
- T/C (dose: 180.0 mg/kg/injection, schedule: Q01DX Z (sc), vehicle: saline): 100 % of control
- T/C (dose: 300.0 mg/kg/injection, schedule: Q01DX Z (sc), vehicle: saline): 100 % of control
- T/C (dose: 500.0 mg/kg/injection, schedule: Q01DX Z (sc), vehicle: saline): 100 % of control
- T/C (dose: 833.0 mg/kg/injection, schedule: Q01DX Z (sc), vehicle: saline): 100 % of control

SMILES: COc1ccc2c(c1OC)C(=O)O[C@@H]2[C@H]1c2c(cc3c(c2OC)OCO3)CCN1C
- T/C [1]: 100 % of control
- T/C [2]: 100 % of control
- T/C [3]: 100 % of control
- T/C [4]: 100 % of control
- T/C (dose: 108.0 mg/kg/injection, schedule: Q01DX Z (sc), vehicle: water): 100 % of control
- T/C (dose: 180.0 mg/kg/injection, schedule: Q01DX Z (sc), vehicle: water): 100 % of control
- T/C (dose: 300.0 mg/kg/injection, schedule: Q01DX Z (sc), vehicle: water): 100 % of control
- T/C (dose: 500.0 mg/kg/injection, schedule: Q01DX Z (sc), vehicle: water): 100 % of control

SMILES: OCC1OC(n2cnc3c(=S)nc[nH]c32)C(O)C1O (configuration not stated)
- T/C (dose: 130.0 mg/kg/injection, schedule: Q01DX Z (sc), vehicle: other): 177 % of control
- T/C (dose: 216.0 mg/kg/injection, schedule: Q01DX Z (sc), vehicle: other): 183 % of control
- T/C (dose: 360.0 mg/kg/injection, schedule: Q01DX Z (sc), vehicle: other): 177 % of control

SMILES: O=P1(NCCCl)OCCCN1CCCl (configuration not stated)
- T/C [5]: 122 % of control
- T/C (dose: 6.25 mg/kg/injection, schedule: Q01DX009 (sc), vehicle: saline): 116 % of control
- T/C [6]: 151 % of control
- T/C [7]: 161 % of control
- T/C [8]: 169 % of control and 188 % of control
- T/C (dose: 66.7 mg/kg/injection, schedule: Q01DX009 (ip), vehicle: saline): 179 % of control
- T/C (dose: 66.7 mg/kg/injection, schedule: Q01DX009 (sc), vehicle: saline): 197 % of control
- T/C [9]: 188 % of control and 235 % of control
- T/C (dose: 100.0 mg/kg/injection, schedule: Q01DX009 (sc), vehicle: saline): 155 % of control and 182 % of control and 232 % of control
- T/C (dose: 133.4 mg/kg/injection, schedule: Q01DX009 (sc), vehicle: saline): 265 % of control
- T/C (dose: 150.0 mg/kg/injection, schedule: Q01DX009 (ip), vehicle: saline): 247 % of control
- T/C (dose: 150.0 mg/kg/injection, schedule: Q01DX009 (sc), vehicle: saline): 258 % of control
- T/C (dose: 200.0 mg/kg/injection, schedule: Q01DX001 (sc), vehicle: water): 187 % of control and 188 % of control
- T/C (dose: 300.0 mg/kg/injection, schedule: Q01DX001 (sc), vehicle: water): 211 % of control and 217 % of control
- T/C (dose: 300.0 mg/kg/injection, schedule: Q01DX009 (sc), vehicle: saline): 176 % of control
- T/C (dose: 400.0 mg/kg/injection, schedule: Q01DX001 (sc), vehicle: water): 241 % of control
- T/C (dose: 400.0 mg/kg/injection, schedule: Q01DX009 (ip), vehicle: saline): 98 % of control
- T/C (dose: 400.0 mg/kg/injection, schedule: Q01DX009 (sc), vehicle: saline): 108 % of control
- T/C (dose: 500.0 mg/kg/injection, schedule: Q01DX001 (sc), vehicle: water): 241 % of control and 244 % of control
- T/C (dose: 600.0 mg/kg/injection, schedule: Q01DX001 (sc), vehicle: water): 300 % of control and 302 % of control
- T/C (dose: 700.0 mg/kg/injection, schedule: Q01DX001 (sc), vehicle: water): 264 % of control and 290 % of control

SMILES: NCCCNCCCCNC(=O)C(O)NC(=O)CC(O)CCCCN=C(N)N (configuration not stated)
- T/C (dose: 3.0 mg/kg/injection, schedule: Q01DX009 (ip), vehicle: saline): 156 % of control
- T/C (dose: 6.0 mg/kg/injection, schedule: Q01DX009 (ip), vehicle: saline): 168 % of control
- T/C [5]: 163 % of control
- T/C (dose: 12.0 mg/kg/injection, schedule: Q01DX009 (ip), vehicle: saline): 196 % of control
- T/C [6]: 184 % of control
- T/C [7]: 208 % of control and 210 % of control
- T/C [8]: 198 % of control and 216 % of control
- T/C [9]: 220 % of control

SMILES: ONc1nc(NO)c2[nH]cnc2n1
- T/C (dose: 8.0 mg/kg/injection, schedule: Q01DX Z (sc), vehicle: steriod suspending solution): 100 % of control
- T/C (dose: 32.0 mg/kg/injection, schedule: Q01DX Z (sc), vehicle: steriod suspending solution): 175 % of control
- T/C (dose: 64.0 mg/kg/injection, schedule: Q01DX Z (sc), vehicle: steriod suspending solution): 200 % of control

SMILES: O=C(Nc1ccc(C2=NCCN2)cc1)c1ccc(C(=O)Nc2ccc(C3=NCCN3)cc2)c(Cl)c1
- T/C (dose: 5.0 mg/kg/injection, schedule: Q01DX Z (iv), vehicle: water): 100 % of control
- T/C (dose: 8.4 mg/kg/injection, schedule: Q01DX Z (iv), vehicle: water): 100 % of control
- T/C (dose: 8.4 mg/kg/injection, schedule: Q01DX Z (sc), vehicle: water): 120 % of control and 227 % of control
- T/C (dose: 14.0 mg/kg/injection, schedule: Q01DX Z (iv), vehicle: water): 100 % of control
- T/C [1]: 188 % of control and 195 % of control and 233 % of control
- T/C [2]: 205 % of control and 220 % of control and 261 % of control
- T/C (dose: 39.0 mg/kg/injection, schedule: Q01DX Z (iv), vehicle: water): 111 % of control
- T/C [3]: 211 % of control and 225 % of control and 183 % of control
- T/C (dose: 65.0 mg/kg/injection, schedule: Q01DX Z (iv), vehicle: water): 155 % of control
- T/C [4]: 188 % of control and 200 % of control and 166 % of control
